Data published in US20250051347A1, “BIFUNCTIONAL CHIMERIC HETEROCYCLIC COMPOUND AND USE THEREOF AS ANDROGEN RECEPTOR DEGRADER” (Hinova Pharmaceuticals, Inc., priority 2021, published 2025).
Where two headings read alike, the source gives them in different places.

Legend:
[1] = biological target: T1, androgen receptor (AR) splicing variant AR-v7 (Homo sapiens, UniProt P10275); experiment: Degradation activity on androgen receptor splicing variant AR-v7 in 22RV1 cells (ELISA); format: cell-based; conditions: AR-v7 degradation in 22RV1 cells, 48 h, class symbols
T1 construct: The degradation activity of compounds on AR-v7 in 22RV1 cells; host or cells: 22RV1 cells
T1 sequence (P10275 1-644 isoform P10275-3): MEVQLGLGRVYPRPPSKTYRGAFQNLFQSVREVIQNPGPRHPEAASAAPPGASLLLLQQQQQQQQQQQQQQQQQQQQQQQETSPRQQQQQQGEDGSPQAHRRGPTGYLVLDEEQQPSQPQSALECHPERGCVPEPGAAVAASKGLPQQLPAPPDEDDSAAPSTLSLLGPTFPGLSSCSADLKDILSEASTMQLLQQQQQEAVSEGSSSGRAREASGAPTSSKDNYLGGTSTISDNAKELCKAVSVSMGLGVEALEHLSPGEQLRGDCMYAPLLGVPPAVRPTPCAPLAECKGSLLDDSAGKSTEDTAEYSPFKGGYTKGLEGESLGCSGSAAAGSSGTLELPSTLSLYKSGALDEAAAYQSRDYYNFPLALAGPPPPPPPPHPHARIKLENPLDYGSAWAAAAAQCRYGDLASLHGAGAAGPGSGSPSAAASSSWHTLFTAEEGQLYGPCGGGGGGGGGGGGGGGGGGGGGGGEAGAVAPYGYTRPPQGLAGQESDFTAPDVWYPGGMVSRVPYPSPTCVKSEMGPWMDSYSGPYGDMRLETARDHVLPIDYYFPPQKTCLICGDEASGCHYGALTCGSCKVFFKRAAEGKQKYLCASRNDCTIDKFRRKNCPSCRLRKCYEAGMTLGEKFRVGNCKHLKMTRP

[2] = Homo sapiens, 22Rv1, 144 h, read-out: 22RV1 IC50 (nM), 22RV1 cells, 6 days culture, CCK-8, OD 450 nm

Compound	DC50 [1] [nM]	IC50 (22RV1 cells; [2]) [nM]	IC50 (22RV1 cells; read-out: 22RV1 IC50, 22RV1 cells, 6 days culture, CCK-8, OD 450 nm) [nM]
CC(C)(c1ccc(OCCCCCCCOCCCOCCCNc2ccc3c(c2)C(=O)N(C2CCC(=O)NC2=O)C3=O)cc1)c1ccc(OCc2ccnc(N3CC4(COC4)C3)n2)cc1 (stereo not shown) [Example 62, 5-((3-(3-((7-(4-(2-(4-((2-(2-oxa-6-azaspiro[3.3]heptan-6-yl)pyrimidin-4-yl)methoxy)phenyl)propan-2-yl)phenoxy)heptyl)oxy)propoxy)propyl)amino)-2-(2,6-dioxopiperidin-3-yl)isoindolin-1,3-dione]	1000 to 5000	1500	–
CSc1nccc(COc2ccc(C(C)(C)c3ccc(OCCCNc4ccc5c(c4)C(=O)N(C4CCC(=O)NC4=O)C5=O)cc3)cc2)n1 (stereo not shown) [Example 66]	11 to 100	70	–
COc1nccc(COc2ccc(C(C)(C)c3ccc(OCCCNc4ccc5c(c4)C(=O)N(C4CCC(=O)NC4=O)C5=O)cc3)cc2)n1 (stereo not shown) [Example 68, 2-(2,6-dioxopiperidin-3-yl)-5-((3-(4-(2-(4-((2-methoxypyrimidin-4-yl)methoxy)phenyl)propan-2-yl)phenoxy)propyl)amino)isoindolin-1,3-dione]	11 to 100	30	–
CCOc1nccc(COc2ccc(C(C)(C)c3ccc(OCCCNc4ccc5c(c4)C(=O)N(C4CCC(=O)NC4=O)C5=O)cc3)cc2)n1 (stereo not shown) [Example 69, 2-(2,6-dioxopiperidin-3-yl)-5-((3-(4-(2-(4-((2-ethoxypyrimidin-4-yl)methoxy)phenyl)propan-2-yl)phenoxy)propyl)amino)isoindolin-1,3-dione]	11 to 100	50	–
CC(C)(c1ccc(OCCCNc2ccc3c(c2)C(=O)N(C2CCC(=O)NC2=O)C3=O)cc1)c1ccc(OCc2ccnc(OC3CC3)n2)cc1 (stereo not shown) [Example 70, 5-((3-(4-(2-(4-((2-cyclopropyloxypyrimidin-4-yl)methoxy)phenyl)propan-2-yl)phenoxy)propyl)amino)-2-(2,6-dioxopiperidin-3-yl)isoindolin-1,3-dione]	11 to 100	30	–
CN1CCN(c2nccc(COc3ccc(C(C)(C)c4ccc(OCCCNc5ccc6c(c5)C(=O)N(C5CCC(=O)NC5=O)C6=O)cc4)cc3)n2)CC1 (stereo not shown) [Example 72]	11 to 100	37	–
CC(C)(c1ccc(OCCCNc2ccc3c(c2)C(=O)N(C2CCC(=O)NC2=O)C3=O)cc1)c1ccc(OCc2ccnc(N)n2)cc1 (stereo not shown) [Example 74, 5-((3-(4-(2-(4-((2-aminopyrimidin-4-yl)methoxy)phenyl)propan-2-yl)phenoxy)propyl)amino)-2-(2,6-dioxopiperidin-3-yl)isoindolin-1,3-dione]	11 to 100	31	–
Cc1nnc(-c2ncc(F)cc2Oc2ccc(C(C)(C)c3ccc(O[C@H]4C[C@H](Nc5ccc6c(c5)C(=O)N(C5CCC(=O)NC5=O)C6=O)C4)cc3)cc2)o1 (stereo partly shown) [Example 95, 2-(2,6-dioxopiperidin-3-yl)-5-(((1r,3r)-3-(4-(2-(4-((5-fluoro-2-(5-methyl-1,3,4-oxadiazol-2-yl)pyridin-3-yl)oxy)phenyl)propan-2-yl)phenoxy)cyclobutyl)amino)isoindolin-1,3-dione]	< 10	6	–
Cc1nnc(-c2cnc(Oc3ccc(C(C)(C)c4ccc(O[C@H]5C[C@H](Nc6ccc7c(c6)C(=O)N(C6CCC(=O)NC6=O)C7=O)C5)cc4)cc3)o2)o1 (stereo partly shown) [Example 96, 2-(2,6-dioxopiperidin-3-yl)-5-(((1r,3r)-3-(4-(2-(4-((5-(5-methyl-1,3,4-oxadiazol-2-yl)oxazol-2-yl)oxy)phenyl)propan-2-yl)phenoxy)cyclobutyl)amino) isoindolin-1,3-dione]	< 10	25	–
Cc1nc(-c2ncc(Oc3ccc(C(C)(C)c4ccc(OC5CC(Nc6ccc7c(c6)CN([C@H]6CCC(=O)NC6=O)C7=O)C5)cc4)cc3)cn2)no1 (stereo partly shown) [Example 101]	< 10	–	2.4
CC(O)c1ccc(Oc2ccc(C3(c4ccc(O[C@H]5C[C@H](Nc6ccc7c(c6)C(=O)N(C6CCC(=O)NC6=O)C7=O)C5)cc4)CCCC3)cc2)nn1 (stereo partly shown) [Example 103]	< 10	2	–
CC(=O)c1ccc(Oc2ccc(C3(c4ccc(O[C@H]5C[C@H](Nc6ccc7c(c6)C(=O)N(C6CCC(=O)NC6=O)C7=O)C5)cc4)CCCC3)cc2)nn1 (stereo partly shown) [Example 104]	< 10	1	–
CC(O)c1ccc(Oc2ccc(C3(c4ccc(O[C@H]5C[C@H](Nc6ccc7c(c6)C(=O)N(C6CCC(=O)NC6=O)C7=O)C5)cc4)CCOCC3)cc2)nn1 (stereo partly shown) [Example 105]	< 10	0.2	–
CC(=O)c1ccc(Oc2ccc(C3(c4ccc(O[C@H]5C[C@H](Nc6ccc7c(c6)C(=O)N(C6CCC(=O)NC6=O)C7=O)C5)cc4)CCOCC3)cc2)nn1 (stereo partly shown) [Example 106]	< 10	0.3	–
CC(=O)c1nccc(COc2ccc(C(C)(C)c3ccc(OCCNc4ccc5c(c4)C(=O)N(C4CCC(=O)NC4=O)C5=O)cc3)cc2)n1 (stereo not shown) [Example 109, 5-((2-(4-(2-(4-((2-acetylpyrimidin-4-yl)methoxy)phenyl)propan-2-yl)phenoxy)ethyl)amino)-2-(2,6-dioxopiperidin-3-yl) isoindolin-1,3-dione]	< 10	9	–

Results, then the compound that gave them:

DC50 [1] [nM]	IC50 (22RV1 cells; [2]) [nM]	IC50 (22RV1 cells; read-out: 22RV1 IC50, 22RV1 cells, 6 days culture, CCK-8, OD 450 nm) [nM]	Compound
11 to 100	35	–	CC(C)(c1ccc(OCCCNc2ccc3c(c2)C(=O)N(C2CCC(=O)NC2=O)C3=O)cc1)c1ccc(OCc2ccnc(N3CCOCC3)n2)cc1 (stereo not shown) [Example 71, 2-(2,6-dioxopiperidin-3-yl)-5-((3-(4-(2-(4-((2-morpholinepyrimidin-4-yl)methoxy)phenyl)propan-2-yl)phenoxy)propyl)amino)isoindolin-1,3-dione]
11 to 100	25	–	CC(C)(c1ccc(OCCCNc2ccc3c(c2)C(=O)N(C2CCC(=O)NC2=O)C3=O)cc1)c1ccc(OCc2ccnc(N3CC4(COC4)C3)n2)cc1 (stereo not shown) [Example 73, 5-((3-(4-(2-(4-((2-(2-oxa-6-azaspiro[3.3]heptan-6-yl)pyrimidin-4-yl)methoxy)phenyl)propan-2-yl)phenoxy)propyl)amino)-2-(2,6-dioxopiperidin-3-yl)isoindolin-1,3-dione]
11 to 100	44	–	CC(C)(c1ccc(OCCCNc2ccc3c(c2)C(=O)N(C2CCC(=O)NC2=O)C3=O)cc1)c1ccc(OCc2ccnc(N3CCC4(CC3)COC4)n2)cc1 (stereo not shown) [Example 77, 5-((3-(4-(2-(4-((2-(2-oxa-7-azaspiro[3.5]nonan-7-yl)pyrimidin-4-yl)methoxy)phenyl)propan-2-yl)phenoxy)propyl)amino)-2-(2,6-dioxopiperidin-3-yl)isoindolin-1,3-dione]
< 10	15	–	CC(C)(c1ccc(OCc2ccnc(N3CC4(CCOC4)C3)n2)cc1)c1ccc(O[C@H]2C[C@@H](Nc3ccc4c(c3)C(=O)N(C3CCC(=O)NC3=O)C4=O)C2)cc1 (stereo partly shown) [Example 88, 5-(((1s,3s)-3-(4-(2-(4-((2-(6-oxa-2-azaspiro[3.4]octan-2-yl)pyrimidin-4-yl)methoxy)phenyl)propan-2-yl)phenoxy)cyclobutyl)amino)-2-(2,6-dioxopiperidin-3-yl)isoindolin-1,3-dione]
< 10	16	–	CC(C)(c1ccc(OCc2ccnc(N3CC4(CCOCC4)C3)n2)cc1)c1ccc(O[C@H]2C[C@@H](Nc3ccc4c(c3)C(=O)N(C3CCC(=O)NC3=O)C4=O)C2)cc1 (stereo partly shown) [Example 89, 5-(((1s,3s)-3-(4-(2-(4-((2-(7-oxa-2-azaspiro[3.5]nonan-2-yl)pyrimidin-4-yl)methoxy)phenyl)propan-2-yl)phenoxy)cyclobutyl)amino)-2-(2,6-dioxopiperidin-3-yl)isoindolin-1,3-dione]
< 10	2	–	CC(C)(c1ccc(OCc2ccnc(N3CC4(COC4)C3)n2)cc1)c1ccc(O[C@H]2C[C@@H](Nc3ccc4c(c3)CN(C3CCC(=O)NC3=O)C4=O)C2)cc1 (stereo partly shown) [Example 91, 3-(5-(((1s,3s)-3-(4-(2-(4-((2-(2-oxa-6-azaspiro[3.3]heptane-6-yl)pyrimidin-4-yl)methoxy)phenyl)propan-2-yl)phenoxy)cyclobutyl)amino)-1-oxoisoindolin-2-yl)piperidin-2,6-dione]
< 10	5	–	CC(C)(c1ccc(OCc2ccnc(C(=O)C3CC3)n2)cc1)c1ccc(O[C@H]2C[C@H](Nc3ccc4c(c3)C(=O)N(C3CCC(=O)NC3=O)C4=O)C2)cc1 (stereo partly drawn) [Example 115, 5-(((trans)-3-(4-(2-(4-((2-(cyclopropanecarbonyl)pyrimidin-4-yl)methoxy)phenyl)propan-2-yl)phenoxy)cyclobutyl)amino)-2-(2,6-dioxopiperidin-3-yl)isoindolin-1,3-dione]
< 10	17	–	CC(C)(c1ccc(OCc2cccc(C(O)C3CC3)n2)cc1)c1ccc(O[C@H]2C[C@H](Nc3ccc4c(c3)C(=O)N(C3CCC(=O)NC3=O)C4=O)C2)cc1 (stereo partly drawn) [Example 116, 5-(((trans)-3-(4-(2-(4-((6-(cyclopropyl(hydroxyl)methyl)pyridin-2-yl)methoxy)phenyl)propan-2-yl)phenoxy)cyclobutyl)amino)-2-(2,6-dioxopiperidin-3-yl)isoindolin-1,3-dione]
